We go through 17 compounds from patent US20050181072A1, “Use of essential oils for combating gi tract infection by helicobacter-like organisms” (priority 2000, published 2005).

What is called MBC is the smallest concentration meeting the test's criterion for killing.

Molecules are shown by their SMILES. Converted amounts (≈) assume the structure as drawn.

For the first assay, the system named is H. pylori. In words: Liquid medium assay, MBC determination (CFU count after subculture). As to conditions: Helicobacter pylori, pH 7.4, read-out: Liquid medium MBC. The assay is classed as cell-based. As for the experimental part:
The parameters used to define the inhibitory capacity of a given substance are: 1) the minimal inhibitory concentration (MIC) which is the lowest concentration at which bacterial growth is prevented, and 2) the minimal […] concentration (MBC) which is the lowest concentration at which bacteria are killed (no growth in subculture). In the light of this: MIC≦MBC. ?
b) Liquid medium assay (used for MBC determination)
MBC determination in H. pylori was carried out by placing bacteria and different dilutions of EO at pH 7.4 together for 1 h or 24 h, plating (subculture in solid medium) for 3-5 days, and counting colony forming units (CFU). The results were then plotted as H. pylori (log10CFU/ml) vs concentration of EO (g/l). It is clear from the plots (shown in FIGS. 1 and 2) that EOs already display a marked effect on H. pylori viability after 1 h incubation and that the selected EOs are remarkably potent inhibitors of H. pylori in vitro.
In the case of `C=CCc1ccc(OC)cc1` [Estragole], the MBC was found to be 100 µg/mL (≈ 675 µM).
For `Cc1ccc(C(C)C)cc1O` [Carvacrol], the minimum bactericidal concentration (MBC) was 40 µg/mL (≈ 266 µM).

Still in this assay, the particulars now being: Helicobacter pylori; pure compounds, Table 2; pH 7.4; read-out: Liquid medium MBC.
On to `CC1=CCC2CC1C2(C)C` (stereo not drawn) [Alpha-pinene], for which the MBC was 100 µg/mL (≈ 734 µM).
As to `C=CCc1ccc(O)c(OC)c1` [Eugenol], the MBC came to 100 µg/mL (≈ 609 µM).
As to `CC(C)=CCCC(C)CC=O` (centres unmarked) [Citronellal], the MBC was 100 µg/mL (≈ 648 µM).
Take `CCC/C=C/C=O` [Trans-2-hexenal]: the MBC was found to be 40 µg/mL (≈ 408 µM).
On to `CC(C)=CCCC(C)=CC=O` [Citral], for which the MBC turned out to be 40 µg/mL (≈ 263 µM).
On the same count and under the same terms, under `C=CC(C)(O)CCC=C(C)C` (centres unmarked) [Linalool] stands 100 µg/mL (≈ 648 µM).
Same read-out and setting: in the case of `CC12CCC(CC1)C(C)(C)O2` [Eukalyptol] it was greater than 100 µg/mL; in that of `CC(C)=CCC/C(C)=C/CO` [Geraniol], 100 µg/mL (≈ 648 µM); in that of `Cc1ccc(C(C)C)c(O)c1` [Thymol], 100 µg/mL (≈ 666 µM).
With `C=C1CCC2CC1C2(C)C` (stereo not drawn) [Beta-pinene], the minimal bactericidal concentration (MBC) worked out at 100 µg/mL (≈ 734 µM).
Turning to `CC(C)=CCC/C(C)=C\CO` [Nerol], the MBC came to 40 µg/mL (≈ 259 µM).
In the case of `CC=Cc1ccc(O)c(OC)c1` [Isoeugenol], the MBC was 40 µg/mL (≈ 244 µM).
The same measure, in the same setting: in the case of `CC(C)=CCCC(C)=CCCC(C)=CCO` [Farnesol] it was 40 µg/mL (≈ 180 µM).
With `CC1CCC(C(C)C)C(O)C1` (centres unmarked) [Menthol], the MBC was greater than 100 µg/mL.
Still for that read-out and setting: in the case of `CC(=O)OC/C=C(\C)CCC=C(C)C` [Geranyl acetate] it was greater than 100 µg/mL.
